Assay results from patent US20170319572A1, “COMBINATION DRUG TREATMENT FOR HEPATITIS C INFECTION” (JANSSEN PHARMACEUTICALS, INC., priority 2015, published 2017).

Columns and labels:
[1] = target: T1, OATP1B3 (Homo sapiens, UniProt Q9NPD5); details: cited from earlier work
T1 sequence (Q9NPD5 1-702): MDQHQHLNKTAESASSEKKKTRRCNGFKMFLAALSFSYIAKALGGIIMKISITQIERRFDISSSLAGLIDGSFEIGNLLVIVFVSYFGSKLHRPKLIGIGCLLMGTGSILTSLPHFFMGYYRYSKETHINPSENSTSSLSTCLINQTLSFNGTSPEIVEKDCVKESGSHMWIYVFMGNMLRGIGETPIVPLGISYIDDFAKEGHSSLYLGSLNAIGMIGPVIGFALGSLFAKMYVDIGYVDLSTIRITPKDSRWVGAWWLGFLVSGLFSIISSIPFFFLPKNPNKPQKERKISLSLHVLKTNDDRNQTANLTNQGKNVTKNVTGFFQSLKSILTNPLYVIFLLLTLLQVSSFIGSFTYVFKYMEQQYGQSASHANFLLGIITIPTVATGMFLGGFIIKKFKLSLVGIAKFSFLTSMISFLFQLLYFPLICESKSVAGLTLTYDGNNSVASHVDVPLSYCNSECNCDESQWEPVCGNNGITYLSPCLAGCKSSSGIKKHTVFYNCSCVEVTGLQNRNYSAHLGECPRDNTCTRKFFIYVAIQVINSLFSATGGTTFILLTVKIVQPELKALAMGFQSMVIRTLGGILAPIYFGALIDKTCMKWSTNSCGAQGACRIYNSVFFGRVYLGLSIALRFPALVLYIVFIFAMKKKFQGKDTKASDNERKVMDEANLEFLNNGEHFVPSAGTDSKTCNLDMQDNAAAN

[2] = target: Pgp (Homo sapiens, UniProt P08183); details: cited from earlier work
Pgp, sequence (P08183 whole entry): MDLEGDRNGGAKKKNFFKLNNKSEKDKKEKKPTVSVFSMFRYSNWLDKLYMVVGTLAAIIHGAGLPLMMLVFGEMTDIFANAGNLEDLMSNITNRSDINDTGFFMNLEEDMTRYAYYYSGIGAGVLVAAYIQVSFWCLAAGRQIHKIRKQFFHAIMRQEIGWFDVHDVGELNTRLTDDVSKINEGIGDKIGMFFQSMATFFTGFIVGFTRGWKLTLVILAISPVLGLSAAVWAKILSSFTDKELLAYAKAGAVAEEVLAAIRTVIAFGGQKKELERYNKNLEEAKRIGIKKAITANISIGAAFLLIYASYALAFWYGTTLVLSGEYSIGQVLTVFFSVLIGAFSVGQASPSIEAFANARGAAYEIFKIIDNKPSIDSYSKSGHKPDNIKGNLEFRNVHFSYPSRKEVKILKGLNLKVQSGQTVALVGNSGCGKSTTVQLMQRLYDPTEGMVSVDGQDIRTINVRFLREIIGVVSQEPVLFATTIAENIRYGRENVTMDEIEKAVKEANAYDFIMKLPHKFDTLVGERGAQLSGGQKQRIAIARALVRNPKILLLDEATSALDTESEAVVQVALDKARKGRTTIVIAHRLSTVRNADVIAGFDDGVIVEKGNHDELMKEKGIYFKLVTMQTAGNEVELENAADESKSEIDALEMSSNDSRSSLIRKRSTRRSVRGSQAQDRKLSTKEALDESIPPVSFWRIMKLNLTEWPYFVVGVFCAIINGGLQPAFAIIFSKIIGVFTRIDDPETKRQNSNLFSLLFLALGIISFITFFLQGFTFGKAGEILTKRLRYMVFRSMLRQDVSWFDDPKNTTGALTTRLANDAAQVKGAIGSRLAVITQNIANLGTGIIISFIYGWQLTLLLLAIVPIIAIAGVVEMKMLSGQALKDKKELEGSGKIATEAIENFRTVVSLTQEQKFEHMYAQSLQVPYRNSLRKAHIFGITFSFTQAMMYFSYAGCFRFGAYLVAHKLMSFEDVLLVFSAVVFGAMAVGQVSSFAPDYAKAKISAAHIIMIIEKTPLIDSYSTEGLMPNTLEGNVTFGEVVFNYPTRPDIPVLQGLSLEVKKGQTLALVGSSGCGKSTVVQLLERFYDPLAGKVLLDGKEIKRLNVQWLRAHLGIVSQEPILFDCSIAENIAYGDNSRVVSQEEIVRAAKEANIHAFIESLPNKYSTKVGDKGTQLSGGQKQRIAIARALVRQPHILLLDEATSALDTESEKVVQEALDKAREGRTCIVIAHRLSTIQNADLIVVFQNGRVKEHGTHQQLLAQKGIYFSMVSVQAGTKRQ

[3] = target: BSEP (Homo sapiens, UniProt O95342); details: cited from earlier work
BSEP, sequence (O95342 whole entry): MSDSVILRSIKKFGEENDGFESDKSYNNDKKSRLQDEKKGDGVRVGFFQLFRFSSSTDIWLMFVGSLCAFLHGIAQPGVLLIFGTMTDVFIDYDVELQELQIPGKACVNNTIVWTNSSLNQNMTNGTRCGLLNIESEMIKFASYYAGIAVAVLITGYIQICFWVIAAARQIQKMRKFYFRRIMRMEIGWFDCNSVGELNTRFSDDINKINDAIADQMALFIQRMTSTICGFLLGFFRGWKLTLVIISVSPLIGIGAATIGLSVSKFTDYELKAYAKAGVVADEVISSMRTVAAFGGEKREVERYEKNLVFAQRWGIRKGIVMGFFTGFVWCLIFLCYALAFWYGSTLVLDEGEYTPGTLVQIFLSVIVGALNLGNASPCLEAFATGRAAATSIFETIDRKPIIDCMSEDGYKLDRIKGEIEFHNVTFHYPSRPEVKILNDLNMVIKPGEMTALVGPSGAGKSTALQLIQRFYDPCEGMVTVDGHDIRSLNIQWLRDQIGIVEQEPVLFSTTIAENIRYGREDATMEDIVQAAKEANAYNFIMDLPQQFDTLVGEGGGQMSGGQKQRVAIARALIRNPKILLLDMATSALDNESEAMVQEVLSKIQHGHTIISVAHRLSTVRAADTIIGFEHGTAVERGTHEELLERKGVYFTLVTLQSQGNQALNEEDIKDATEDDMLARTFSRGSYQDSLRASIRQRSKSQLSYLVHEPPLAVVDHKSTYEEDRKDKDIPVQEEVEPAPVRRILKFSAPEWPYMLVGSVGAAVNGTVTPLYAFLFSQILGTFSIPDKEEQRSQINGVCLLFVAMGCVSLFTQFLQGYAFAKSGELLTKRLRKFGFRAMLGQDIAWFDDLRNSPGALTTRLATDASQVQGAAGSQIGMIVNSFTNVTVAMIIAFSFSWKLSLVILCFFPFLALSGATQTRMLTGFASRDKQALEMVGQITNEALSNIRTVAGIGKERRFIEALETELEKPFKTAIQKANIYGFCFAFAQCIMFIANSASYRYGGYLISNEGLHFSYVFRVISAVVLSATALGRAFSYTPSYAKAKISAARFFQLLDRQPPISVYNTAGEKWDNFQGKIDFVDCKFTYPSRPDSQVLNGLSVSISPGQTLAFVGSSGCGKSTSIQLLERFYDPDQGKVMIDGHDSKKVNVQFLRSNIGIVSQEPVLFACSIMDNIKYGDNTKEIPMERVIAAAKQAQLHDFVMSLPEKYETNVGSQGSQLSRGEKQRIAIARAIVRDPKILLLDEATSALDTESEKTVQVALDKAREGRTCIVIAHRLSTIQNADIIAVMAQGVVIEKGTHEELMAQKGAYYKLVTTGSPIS

[4] = target: MRP3 (Homo sapiens, UniProt O15438); details: MRP2/3; cited from earlier work
MRP3, sequence (O15438 whole entry): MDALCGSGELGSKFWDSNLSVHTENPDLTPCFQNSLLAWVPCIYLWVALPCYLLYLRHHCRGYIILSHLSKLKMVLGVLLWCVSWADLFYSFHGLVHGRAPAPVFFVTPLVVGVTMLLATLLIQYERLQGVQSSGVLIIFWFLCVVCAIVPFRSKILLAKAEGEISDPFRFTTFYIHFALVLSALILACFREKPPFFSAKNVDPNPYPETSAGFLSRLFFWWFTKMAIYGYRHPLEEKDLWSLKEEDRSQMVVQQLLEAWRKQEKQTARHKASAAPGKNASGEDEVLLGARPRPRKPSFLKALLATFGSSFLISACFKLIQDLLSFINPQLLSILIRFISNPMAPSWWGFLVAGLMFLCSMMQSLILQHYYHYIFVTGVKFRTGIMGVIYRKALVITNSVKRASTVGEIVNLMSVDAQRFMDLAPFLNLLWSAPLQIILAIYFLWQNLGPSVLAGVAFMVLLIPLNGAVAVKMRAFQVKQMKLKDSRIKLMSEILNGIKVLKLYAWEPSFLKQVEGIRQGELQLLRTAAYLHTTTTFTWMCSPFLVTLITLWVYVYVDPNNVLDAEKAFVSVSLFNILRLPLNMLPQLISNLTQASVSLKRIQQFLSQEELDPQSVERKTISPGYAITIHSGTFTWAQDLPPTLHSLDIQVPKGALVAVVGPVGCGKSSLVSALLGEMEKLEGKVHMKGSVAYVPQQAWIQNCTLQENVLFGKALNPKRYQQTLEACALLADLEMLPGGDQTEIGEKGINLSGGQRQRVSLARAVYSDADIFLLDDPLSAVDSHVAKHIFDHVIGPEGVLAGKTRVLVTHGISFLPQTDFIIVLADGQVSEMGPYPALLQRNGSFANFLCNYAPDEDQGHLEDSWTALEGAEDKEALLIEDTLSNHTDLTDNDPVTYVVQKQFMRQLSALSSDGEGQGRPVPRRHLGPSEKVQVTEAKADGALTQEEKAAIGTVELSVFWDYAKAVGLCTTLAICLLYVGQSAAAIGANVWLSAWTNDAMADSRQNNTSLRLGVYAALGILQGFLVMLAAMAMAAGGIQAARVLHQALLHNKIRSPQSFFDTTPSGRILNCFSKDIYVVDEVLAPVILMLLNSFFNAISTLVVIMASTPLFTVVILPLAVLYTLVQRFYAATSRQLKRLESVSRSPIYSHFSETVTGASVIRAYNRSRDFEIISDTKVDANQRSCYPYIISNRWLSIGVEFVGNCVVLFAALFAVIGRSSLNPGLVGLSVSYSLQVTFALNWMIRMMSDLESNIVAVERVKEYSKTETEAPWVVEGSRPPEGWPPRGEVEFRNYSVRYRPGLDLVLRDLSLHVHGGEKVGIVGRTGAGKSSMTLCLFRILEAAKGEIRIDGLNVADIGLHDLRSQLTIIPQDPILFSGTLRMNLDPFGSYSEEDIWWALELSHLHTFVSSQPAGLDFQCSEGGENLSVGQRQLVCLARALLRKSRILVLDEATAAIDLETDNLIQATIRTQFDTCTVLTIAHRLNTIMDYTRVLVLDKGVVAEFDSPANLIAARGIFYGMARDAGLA

[5] = PK analysis of fixed dose combinations vs single agents, single dose in healthy volunteers; assay type: in vivo, human; details: Arm 2 (FDC02) vs reference (Arm 1); 90% CI in the row below
Protocol: SMV (100 mg), ODV (50 mg), and Compound (III) (800 mg) were administered as three different formulations or together as single doses in vivo to healthy volunteers. The arms of the study included: • Arm 1 (Reference Arm): Single oral doses of single agents, one SMV 100-mg capsule, one ODV 50-mg tablet as granule layered solid dispersion with copovidone and poloxamers, and two Compound (III) 400-mg tablets, administered together. • Arm 2: Single oral dose of fixed dose combination (FDC02): SMV 100 mg+ODV 50 mg as a spray dried solid dispersion with HPMC-AS L in a ratio ODV/HPMC-AS L 1/1 w/w+Compound (III) 800 mg • Arm 3: Single oral dose of fixed dose combination (FDC04): SMV 100 mg+ODV 50 mg as a spray dried solid dispersion with HPMC-AS L in a ratio ODV/HPMC-AS L 1/3 w/w+Compound (III) 800 mg • Arm 4: Single oral dose of fixed dose combination (FDC01): SMV 100 mg+ODV 50 mg as a spray dried solid dispersion with copovidone and poloxamers+Compound (III) 800 mg
PK parameters, including Cmax, tmax, AUClast, and AUC∞ were measured for Compound (III), ODV, SMV, and metabolites Compound A-I and Compound A-3 for each Arm of the study. Arms that included fixed dose combinations (FDC) (Arm 2, Arm 3, and Arm 4) were then compared to a single oral dose (Arm 1, the reference Arm). […]

[6] = target: MRP2 (Homo sapiens, UniProt Q92887); details: MRP2/3; cited from earlier work
[7] = Phase 2a open-label combination study, pharmacokinetics and safety; assay type: in vivo, human; details: for change of exposure on reducing ODV dosing from QD to QOD: 50 mg
Protocol: A randomized, Phase 2a, open-label study was carried out to evaluate the safety, pharmacokinetics and efficacy of the combination of Compound (III), Odalasvir and Simeprevir in Genotype 1 treatment-naïve subjects with chronic hepatitis C. Other treatment-naïve subjects included Genotype 2, 3, 4, 5 and 6. The aim of the study was to determine the efficacy, pharmacokinetics (PK), and safety of Compound (III)+Odalasvir±SMV in HCV-infected subjects. […] Efficacy, PK and safety evaluations were conducted during and through 24 weeks post dosing. Up to 15 cohorts were enrolled; data was generated from cohorts that have completed dosing.

Least Square Means Ratio, Cmax [5] [%]	SMILES	inhibition of OATP1B3 [1]	in vitro inhibition of Pgp [2]	inhibition of BSEP [3]	inhibition of MRP3 [4]	inhibition of MRP2 [6]	change of exposure on reducing ODV dosing from QD to QOD [7]	change of exposure on reducing ODV dosing from QD to QOD ([7]; listed as Odalasvir)	observed exposure in Cohort 1 / group (i) ([7]; Compound (III) 400 mg, ODV 50 mg QD, SMV 100 mg QD)
	CC(C)OC(=O)[C@H](C)N[P@](=O)(OC[C@@]1(F)O[C@@H](n2ccc(=O)[nH]c2=O)[C@](C)(O)[C@@H]1O)Oc1ccccc1 [Compound (III), isopropyl ((S)-(((2S,3S,4R,5R)-5-(2,4-dioxo-3,4-dihydropyrimidin-1 (2H)-yl)-2-fluoro-3,4-dihydroxy-4-methyltetrahydrofuran-2-yl)methoxy)(phenoxy)phosphoryl)-L-alaninate]	no in vitro inhibition	no in vitro inhibition						
81.00	COC(=O)N[C@H](C(=O)N1[C@H](c2nc3cc(-c4cc5ccc4CCc4ccc(c(-c6ccc7[nH]c([C@@H]8C[C@@H]9CCCC[C@@H]9N8C(=O)[C@@H](NC(=O)OC)C(C)C)nc7c6)c4)CC5)ccc3[nH]2)C[C@@H]2CCCC[C@@H]21)C(C)C [ODV, methyl [(2S)-1-[(2S,3aS,7aS)-2-[6-[11-[2-[(2S,3aS,7aS)-1-[(2S)-2-[(methoxycarbonyl)amino]-3-methylbutanoyl]octahydro-1H-indol-2-yl]-1H-benzimidazol-6-yl]tricyclo[8.2.2.2^4,7]hexadeca-1(12),4,6,10,13,15-hexaen-5-yl]-1H-benzimidazol-2-yl]octahydro-1H-indol-1-yl]-3-methyl-1-oxobutan-2-yl]carbamate]	no inhibition		no inhibition	no inhibition	no inhibition	decreased ODV exposure proportionally	decreased Odalasvir exposure proportionally	higher than anticipated
